Measurements: paper PMC3441706 (PLoS ONE, 2012)

Columns and labels:
all cell lines tested = assay: β-galactosidase staining (cellular senescence); format: cell-based; details: data not shown
HT-29 cells [1] = assay: Flow cytometric cell cycle analysis; format: cell-based, human; details: HT-29, 24 hours, IC50 concentration, 0.5 and 1 µM
Description: (§1) HT-29, HeLa and HCT116 cells were plated in 6-well plates. […] CPT was used at 50 nM and 1 µM. To analyze the cell cycle distribution, cells were collected after 24 hours of incubation and washed with PBS. Cells were fixed in 70% ethanol for at least 2 hours. For analysis, cells were transferred into PBS, incubated with RNAse A (0.04 µg/ml final concentration) for 30 minutes at 37°C, treated with […] propidium iodide for 30 min at 4°C and then analyzed by flow cytometry using BD FACScan (Becton, Dickinson and Company, Franklin Lakes, NJ, USA). The resulting DNA histograms were quantified using ModFit LT (Verity Software House, Topsham, ME, USA).

HeLa cells = assay: Flow cytometric cell cycle analysis; format: cell-based, human; details: 24 hours, IC50 concentration, 0.5 and 1 µM
Description: as §1

HCT116 cells = assay: Flow cytometric cell cycle analysis; format: cell-based, human; details: HCT116, 24 hours, IC50 concentration, 0.5 and 1 µM
Description: as §1

HT-29 cells [2] = assay: Clonogenic assay; format: cell-based, human; details: HT-29, 14 days incubation
Description: (§2) For clonogenic assays, HT-29 and HepG2 cells were plated in 60 mm dishes at a density of 1000 cells per dish. After 24 hours NVX-412 was added at the indicated concentrations. After cultivation for 12–14 days (when assessable colonies were visible), colonies were fixed in 70% ethanol, stained with 0.5% Crystal Violet and counted manually.

HepG2 cells = assay: Clonogenic assay; format: cell-based, human; details: HepG2, 12 days incubation
Description: as §2

NALM-1 = assay: Cytotoxicity assay (cell counting); format: cell-based; details: Homo sapiens; NALM-1, CML; 72 hours incubation
Description: (§3) Cells were plated in 24-well plates. After cells were allowed to recover for 24 hours, NVX-412 was added in fresh growth medium. The maximal DMSO concentration reached in all experiments was below 0.01%. Respective control experiments at the highest DMSO concentration were performed in order to rule out DMSO-induced effects. After 72 hours incubation the proportion of viable cells was determined by cell counting with a Z1 Coulter Particle Counter (Beckman Coulter, Vienna, AUT), a ViCell XR (Beckman Coulter, Vienna, AUT) or a CASY® Cell Counter (Schärfe, Reutlingen, Germany). Cytotoxicity was expressed as IC50 values that were derived from the corresponding dose–response curves.

RKO = assay: Cytotoxicity assay (cell counting); format: cell-based; details: Homo sapiens, colon carcinoma, 72 hours incubation
Description: as §3

GL-1 = assay: Cytotoxicity assay (cell counting); format: cell-based; details: Canis lupus familiaris; GL-1, canine B-cell leukemia; 72 hours incubation
Description: as §3

OSW = assay: Cytotoxicity assay (cell counting); format: cell-based; details: Canis lupus familiaris, canine T-cell lymphoma, 72 hours incubation
Description: as §3

BV173 = assay: Cytotoxicity assay (cell counting); format: cell-based; details: Homo sapiens, BV-173; BV173, CML; 72 hours incubation
Description: as §3

CL-1 = assay: Cytotoxicity assay (cell counting); format: cell-based; details: Canis lupus familiaris; CL-1, canine T-cell lymphoma; 72 hours incubation
Description: as §3

CLBL-1 = assay: Cytotoxicity assay (cell counting); format: cell-based; details: Canis lupus familiaris; CLBL-1, canine B-cell lymphoma; 72 hours incubation
Description: as §3

SU-DHL-6 = assay: Cytotoxicity assay (cell counting); format: cell-based; details: Homo sapiens; SU-DHL-6, B-cell lymphoma; 72 hours incubation
Description: as §3

Raji = assay: Cytotoxicity assay (cell counting); format: cell-based; details: Homo sapiens, Burkitt lymphoma, 72 hours incubation
Description: as §3

SU-DHL-8 = assay: Cytotoxicity assay (cell counting); format: cell-based; details: Homo sapiens; SU-DHL-8, B-cell lymphoma; 72 hours incubation
Description: as §3

HL-60 = assay: Cytotoxicity assay (cell counting); format: cell-based; details: Homo sapiens; HL-60, AML; 72 hours incubation
Description: as §3

KG-1a = assay: Cytotoxicity assay (cell counting); format: cell-based; details: Homo sapiens, AML, 72 hours incubation
Description: as §3

HepG2 = assay: Cytotoxicity assay (cell counting); format: cell-based; details: Homo sapiens; HepG2, liver carcinoma; 72 hours incubation
Description: as §3

Ramos = assay: Cytotoxicity assay (cell counting); format: cell-based; details: Homo sapiens, Burkitt Lymphoma, 72 hours incubation
Description: as §3

HeLa = assay: Cytotoxicity assay (cell counting); format: cell-based; details: Homo sapiens, cervix carcinoma, 72 hours incubation
Description: as §3

Hs578T = assay: Cytotoxicity assay (cell counting); format: cell-based; details: Homo sapiens, Hs-578T, breast carcinoma, 72 hours incubation
Description: as §3

KG-1 = assay: Cytotoxicity assay (cell counting); format: cell-based; details: Homo sapiens; KG-1, AML; 72 hours incubation
Description: as §3

K562 = assay: Cytotoxicity assay (cell counting); format: cell-based; details: Homo sapiens; K562, CML; 72 hours incubation
Description: as §3

MCF-7 = assay: Cytotoxicity assay (cell counting); format: cell-based; details: Homo sapiens, MCF7; MCF-7, breast adenocarcinoma; 72 hours incubation
Description: as §3

[3] = test system: Normal human endothelial cells (HUVEC); assay: Cytotoxicity assay, normal cells; format: cell-based
Description: as §3

[4] = test system: human white preadipocytes (hWP); assay: Cytotoxicity assay, normal cells; format: cell-based
Description: as §3

O=C(NNc1nc2cc(F)ccc2n2cccc12)c1cnccn1 [NVX-412, Pyrazine-2-carboxylic acid N’- (7-fluoro-pyrrolo[1,2-α]quinoxalin-4-yl)-hydrazide-oxalic acid co-crystal]
β-galactosidase staining (senescence) (all cell lines tested): negative in all cell lines tested | Cell cycle distribution (HT-29 cells [1]): dose-dependent increase in the fraction of S-phase cells | Cell cycle distribution (HeLa cells): dose-dependent increase in the fraction of S-phase cells | Cell cycle distribution (HCT116 cells): dose-dependent increase in the fraction of S-phase cells | Clonogenic survival (HT-29 cells [2]): reduced the ability of HepG2 and HT-29 cells to form colonies in a dose-dependent manner | Clonogenic survival (HepG2 cells): reduced the ability of HepG2 and HT-29 cells to form colonies in a dose-dependent manner | IC50 (NALM-1): 330 nM | IC50 (RKO): 150 nM | IC50 (GL-1): 105 nM | IC50 (OSW): 103 nM | IC50 (BV173): 210 nM | IC50 (CL-1): 170 nM | IC50 (CLBL-1): 40 nM | IC50 (SU-DHL-6): 320 nM | IC50 (Raji): 60 nM | IC50 (SU-DHL-8): 80 nM | IC50 (HL-60): 210 nM | IC50 (KG-1a): 145 nM | IC50 (HepG2): 290 nM | IC50 (Ramos): 170 nM | IC50 (HeLa): 210 nM | IC50 (Hs578T): 135 nM | IC50 (KG-1): 190 nM | IC50 (K562): 540 nM | IC50 (MCF-7): 150 nM | IC50 [3]: 2000 nM | IC50 [4]: 1000 nM
